Measured values from ChEMBL document CHEMBL1145617, “Identification of acridinyl hydrazides as potent aspartic protease inhibitors” (Bioorg Med Chem Lett, 2008).

Tests used:
[1] = molecular target: Cathepsin D (Homo sapiens, UniProt P07339); assay: Inhibition of human cathepsin D by FRET assay
[2] = molecular target: Plasmepsin II (Plasmodium falciparum, UniProt P46925); assay: Inhibition of Plasmodium falciparum plasmepsin-2 by FRET assay
Sequence of Plasmepsin II (P46925 whole entry): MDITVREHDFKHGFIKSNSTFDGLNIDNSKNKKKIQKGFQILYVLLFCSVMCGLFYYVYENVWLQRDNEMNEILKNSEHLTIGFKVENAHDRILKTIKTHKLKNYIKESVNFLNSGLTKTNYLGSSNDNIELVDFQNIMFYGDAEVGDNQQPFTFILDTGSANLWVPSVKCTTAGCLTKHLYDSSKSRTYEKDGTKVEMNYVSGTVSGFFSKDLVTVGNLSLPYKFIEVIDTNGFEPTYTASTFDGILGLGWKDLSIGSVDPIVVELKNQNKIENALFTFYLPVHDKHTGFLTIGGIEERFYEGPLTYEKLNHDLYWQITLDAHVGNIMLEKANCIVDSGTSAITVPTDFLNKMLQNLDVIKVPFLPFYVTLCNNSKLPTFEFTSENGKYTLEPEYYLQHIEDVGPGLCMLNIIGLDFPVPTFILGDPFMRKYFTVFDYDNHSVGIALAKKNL

Sequence of Cathepsin D (P07339 65-162 limits assumed): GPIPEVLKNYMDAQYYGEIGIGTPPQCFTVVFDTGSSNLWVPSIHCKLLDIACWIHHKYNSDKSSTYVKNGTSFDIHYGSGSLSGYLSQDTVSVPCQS
Sequence of Cathepsin D (P07339 169-412 limits assumed): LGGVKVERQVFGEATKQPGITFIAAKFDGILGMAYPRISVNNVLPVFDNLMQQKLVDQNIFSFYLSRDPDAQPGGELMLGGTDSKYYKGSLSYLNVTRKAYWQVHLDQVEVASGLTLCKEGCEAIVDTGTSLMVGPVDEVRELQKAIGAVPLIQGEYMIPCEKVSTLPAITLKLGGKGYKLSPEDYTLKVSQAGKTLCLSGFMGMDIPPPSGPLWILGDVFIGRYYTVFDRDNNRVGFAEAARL

`Cc1cccc(C(=O)NNc2c3ccccc3nc3c(C)c(C)ccc23)c1` showed an IC50 [1] of 9 nM and an IC50 [2] of 4 nM.
`CC(C)CC(=O)N[C@H](C(=O)N[C@H](C(=O)N[C@@H](CC(C)C)[C@@H](O)CC(=O)N[C@@H](C)C(=O)N[C@@H](CC(C)C)[C@@H](O)CC(=O)O)C(C)C)C(C)C` [PEPSTATIN] gave an IC50 [2] of 0.68 nM.
Molecule `Cc1ccc2c(NNC(=O)c3ccccc3O)c3ccccc3nc2c1C` has an IC50 [1] of 0.5 nM and an IC50 [2] of 0.13 nM.
